Reference: article PMC4503722, “Novel Phenotypic Outcomes Identified for a Public Collection of Approved Drugs from a Publicly Accessible Panel of Assays” (PLoS ONE, 2015)
Read-outs that look alike come from different tables or passages of the source.

Key:
[1] = target: T1, hp70S6K1 (RPS6KB1) (Homo sapiens, UniProt P23443); assay: Cerep LANCE kinase assay hp70S6K1 (S1 assay 31); assay type: biochemical; settings: for IC50: read-out: p70S6K1
T1 construct: purchased Cerep (LANCE kinase assay platform, contract assay)
T1 sequence (P23443 whole entry): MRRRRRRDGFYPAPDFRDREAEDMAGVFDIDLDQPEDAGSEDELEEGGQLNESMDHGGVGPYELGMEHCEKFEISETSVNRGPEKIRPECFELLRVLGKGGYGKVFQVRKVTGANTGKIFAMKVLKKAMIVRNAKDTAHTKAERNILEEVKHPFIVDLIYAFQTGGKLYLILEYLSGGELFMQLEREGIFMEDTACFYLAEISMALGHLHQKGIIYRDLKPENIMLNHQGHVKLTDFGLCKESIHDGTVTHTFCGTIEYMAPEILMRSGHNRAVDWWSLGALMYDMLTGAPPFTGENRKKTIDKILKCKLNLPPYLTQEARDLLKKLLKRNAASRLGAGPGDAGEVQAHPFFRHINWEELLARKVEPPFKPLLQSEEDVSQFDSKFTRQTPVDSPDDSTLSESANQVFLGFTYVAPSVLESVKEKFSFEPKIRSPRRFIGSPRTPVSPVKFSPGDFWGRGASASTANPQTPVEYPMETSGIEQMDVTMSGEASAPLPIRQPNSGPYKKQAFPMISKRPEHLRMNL

[2] = tested on: DLD-1; assay: cells; assay type: cell-based; settings: Homo sapiens
[3] = tested on: HCT116; assay: cells; assay type: cell-based; settings: Homo sapiens
[4] = target: T2, hKDR (Homo sapiens, UniProt P35968); assay: Cerep LANCE kinase assay hKDR (S1 assay 32); assay type: biochemical; settings: for IC50: read-out: KDR
T2 construct: purchased Cerep (LANCE kinase assay platform, contract assay)
T2 sequence (P35968 20-1356): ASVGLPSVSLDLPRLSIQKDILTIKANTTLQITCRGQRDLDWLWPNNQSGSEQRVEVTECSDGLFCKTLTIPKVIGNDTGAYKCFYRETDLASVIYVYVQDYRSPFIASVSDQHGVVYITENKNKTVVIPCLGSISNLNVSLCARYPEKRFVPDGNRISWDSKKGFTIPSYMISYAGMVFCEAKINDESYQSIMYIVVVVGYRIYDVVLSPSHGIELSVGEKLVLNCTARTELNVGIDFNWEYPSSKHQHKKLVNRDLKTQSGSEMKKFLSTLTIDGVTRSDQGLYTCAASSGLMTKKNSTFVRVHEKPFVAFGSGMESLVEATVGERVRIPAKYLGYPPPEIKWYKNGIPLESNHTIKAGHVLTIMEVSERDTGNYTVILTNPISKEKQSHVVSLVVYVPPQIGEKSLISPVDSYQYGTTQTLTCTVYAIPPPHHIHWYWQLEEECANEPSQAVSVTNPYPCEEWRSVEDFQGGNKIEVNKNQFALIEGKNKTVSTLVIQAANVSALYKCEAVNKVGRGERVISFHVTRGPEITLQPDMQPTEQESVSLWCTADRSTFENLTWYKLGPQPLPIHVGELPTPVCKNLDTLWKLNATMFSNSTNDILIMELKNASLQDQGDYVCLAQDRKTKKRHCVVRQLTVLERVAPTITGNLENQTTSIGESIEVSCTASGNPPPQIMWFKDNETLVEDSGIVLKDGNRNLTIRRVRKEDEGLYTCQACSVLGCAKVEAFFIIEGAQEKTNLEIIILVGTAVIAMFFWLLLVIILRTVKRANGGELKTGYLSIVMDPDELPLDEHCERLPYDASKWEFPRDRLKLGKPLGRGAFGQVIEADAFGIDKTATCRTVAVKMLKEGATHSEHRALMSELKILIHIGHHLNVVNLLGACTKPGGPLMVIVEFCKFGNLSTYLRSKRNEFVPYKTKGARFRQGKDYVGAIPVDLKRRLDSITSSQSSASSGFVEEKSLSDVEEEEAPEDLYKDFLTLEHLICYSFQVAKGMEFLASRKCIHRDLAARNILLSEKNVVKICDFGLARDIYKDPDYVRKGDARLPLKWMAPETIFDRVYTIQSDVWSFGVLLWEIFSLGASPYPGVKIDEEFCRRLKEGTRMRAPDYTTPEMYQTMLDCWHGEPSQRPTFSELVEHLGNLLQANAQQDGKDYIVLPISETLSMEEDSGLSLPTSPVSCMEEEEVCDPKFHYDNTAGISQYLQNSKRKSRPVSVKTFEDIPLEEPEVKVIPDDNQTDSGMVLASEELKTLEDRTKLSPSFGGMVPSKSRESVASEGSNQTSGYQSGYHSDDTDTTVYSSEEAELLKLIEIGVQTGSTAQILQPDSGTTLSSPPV

[5] = target: T3, hFLT3 (Homo sapiens, UniProt P36888); assay: Cerep LANCE kinase assay hFLT3 (S1 assay 35); assay type: biochemical; settings: for IC50: read-out: FLT3
T3 construct: purchased Cerep (LANCE kinase assay platform, contract assay)
T3 sequence (P36888 27-993): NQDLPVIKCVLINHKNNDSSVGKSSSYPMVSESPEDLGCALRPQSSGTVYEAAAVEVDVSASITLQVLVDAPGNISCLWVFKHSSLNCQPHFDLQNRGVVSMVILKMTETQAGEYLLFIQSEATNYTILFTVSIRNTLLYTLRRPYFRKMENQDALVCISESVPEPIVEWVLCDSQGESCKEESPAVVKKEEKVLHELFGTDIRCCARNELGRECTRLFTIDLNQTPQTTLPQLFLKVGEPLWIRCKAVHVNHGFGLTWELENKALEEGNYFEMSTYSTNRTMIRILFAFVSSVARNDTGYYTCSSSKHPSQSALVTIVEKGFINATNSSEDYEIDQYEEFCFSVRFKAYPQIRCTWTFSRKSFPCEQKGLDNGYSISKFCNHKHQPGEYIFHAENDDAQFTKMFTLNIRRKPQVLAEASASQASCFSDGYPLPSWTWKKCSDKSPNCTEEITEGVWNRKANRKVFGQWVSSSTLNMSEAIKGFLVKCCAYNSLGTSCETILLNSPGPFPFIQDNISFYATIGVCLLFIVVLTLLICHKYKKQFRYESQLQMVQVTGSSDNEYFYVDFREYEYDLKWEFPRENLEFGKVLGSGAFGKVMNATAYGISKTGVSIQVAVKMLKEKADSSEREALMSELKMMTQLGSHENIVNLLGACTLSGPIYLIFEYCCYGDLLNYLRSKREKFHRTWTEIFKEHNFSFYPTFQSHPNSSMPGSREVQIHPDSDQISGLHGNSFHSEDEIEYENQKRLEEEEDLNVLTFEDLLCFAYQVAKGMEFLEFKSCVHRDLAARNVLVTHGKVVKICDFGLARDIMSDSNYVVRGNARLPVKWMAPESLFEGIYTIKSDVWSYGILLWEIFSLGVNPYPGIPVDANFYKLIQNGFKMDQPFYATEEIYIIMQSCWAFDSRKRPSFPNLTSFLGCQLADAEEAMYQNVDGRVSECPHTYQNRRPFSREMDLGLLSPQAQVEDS

[6] = tested on: INS-1E cells; assay: cells; assay type: cell-based, rat
[7] = tested on: NCI-H716 cells; assay: cells; assay type: cell-based, Human
[8] = target: T4, hJAK2 (Homo sapiens, UniProt O60674); assay: Cerep LANCE kinase assay hJAK2 (S1 assay 33); assay type: biochemical; settings: for IC50: read-out: JAK2
T4 construct: purchased Cerep (LANCE kinase assay platform, contract assay)
T4 sequence (O60674 whole entry): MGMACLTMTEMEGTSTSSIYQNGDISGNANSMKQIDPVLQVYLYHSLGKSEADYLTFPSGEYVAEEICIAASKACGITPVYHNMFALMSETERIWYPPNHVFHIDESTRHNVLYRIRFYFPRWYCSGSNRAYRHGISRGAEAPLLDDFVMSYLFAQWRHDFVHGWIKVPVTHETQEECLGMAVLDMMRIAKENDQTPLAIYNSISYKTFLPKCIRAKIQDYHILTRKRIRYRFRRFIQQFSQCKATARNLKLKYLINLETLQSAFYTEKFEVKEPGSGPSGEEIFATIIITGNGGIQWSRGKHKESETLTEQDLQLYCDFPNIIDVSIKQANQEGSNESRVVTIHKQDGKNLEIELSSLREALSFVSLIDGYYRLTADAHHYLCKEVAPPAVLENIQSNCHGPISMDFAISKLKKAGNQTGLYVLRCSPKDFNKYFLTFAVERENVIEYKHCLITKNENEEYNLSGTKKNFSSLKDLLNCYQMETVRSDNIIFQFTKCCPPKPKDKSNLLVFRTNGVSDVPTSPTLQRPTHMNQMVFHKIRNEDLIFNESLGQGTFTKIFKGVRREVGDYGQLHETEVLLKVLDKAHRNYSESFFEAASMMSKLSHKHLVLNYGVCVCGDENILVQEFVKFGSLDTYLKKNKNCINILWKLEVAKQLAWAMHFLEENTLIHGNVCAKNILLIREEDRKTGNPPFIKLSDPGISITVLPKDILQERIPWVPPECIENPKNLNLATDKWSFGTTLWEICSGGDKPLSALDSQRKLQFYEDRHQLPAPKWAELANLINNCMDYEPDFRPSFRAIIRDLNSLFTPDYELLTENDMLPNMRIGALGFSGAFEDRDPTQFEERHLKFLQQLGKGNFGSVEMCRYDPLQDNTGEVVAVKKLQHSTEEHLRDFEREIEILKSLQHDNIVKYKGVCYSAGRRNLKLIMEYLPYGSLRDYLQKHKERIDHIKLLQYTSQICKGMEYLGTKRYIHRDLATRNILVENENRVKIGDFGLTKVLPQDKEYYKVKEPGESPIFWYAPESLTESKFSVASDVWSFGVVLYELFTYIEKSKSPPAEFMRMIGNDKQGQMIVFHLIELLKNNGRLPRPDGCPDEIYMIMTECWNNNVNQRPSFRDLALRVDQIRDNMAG

[9] = tested on: SW480; assay: cells; assay type: cell-based; settings: Homo sapiens
[10] = target: T5, hGSK3b (Homo sapiens, UniProt P49841); assay: Cerep LANCE kinase assay hGSK3b (S1 assay 34); assay type: biochemical; settings: for IC50: read-out: GSK3b
T5 construct: purchased Cerep (LANCE kinase assay platform, contract assay)
T5 sequence (P49841 whole entry): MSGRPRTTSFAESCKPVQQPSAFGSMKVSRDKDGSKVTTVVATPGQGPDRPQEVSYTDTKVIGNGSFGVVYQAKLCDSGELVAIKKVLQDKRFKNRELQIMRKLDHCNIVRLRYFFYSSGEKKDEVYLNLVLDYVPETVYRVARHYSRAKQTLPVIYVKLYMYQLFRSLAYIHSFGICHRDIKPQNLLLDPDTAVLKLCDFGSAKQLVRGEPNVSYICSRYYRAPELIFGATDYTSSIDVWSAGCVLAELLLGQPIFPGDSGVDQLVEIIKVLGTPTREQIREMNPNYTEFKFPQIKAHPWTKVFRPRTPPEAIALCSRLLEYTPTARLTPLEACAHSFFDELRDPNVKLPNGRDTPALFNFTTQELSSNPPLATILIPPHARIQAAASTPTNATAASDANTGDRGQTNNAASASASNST

[11] = tested on: HCT116 cells treated with a GSK3β inhibitor; assay: cells; assay type: cell-based; settings: Homo sapiens
[12] = tested on: HeLa cells; assay: cells; assay type: cell-based
[13] = tested on: nuclear β-catenin in C2C12 cells; assay: cells; assay type: cell-based
[14] = tested on: endothelial tube formation in co-cultures of ECFCs and ADSCs treated with VEGF; assay: cells; assay type: cell-based, human
[15] = DLD-1, basal, DLD-1, read-out: Basal_Viability ATP DLD-1
[16] = HCT-116, basal, HCT116, read-out: Basal_Viability ATP HCT116
[17] = Rattus norvegicus, INS-1E; read-out: Insulin Secretion
[18] = Homo sapiens, NCI-H716; read-out: GLP 1 Secretion
[19] = SW480, basal, SW480, read-out: Basal_Viability ATP SW480
[20] = HCT-116, HCT116 pretreated with GSK3b inhibitor, read-out: GSK3b inh pretreated_Viability ATP HCT116
[21] = Homo sapiens, HeLa, S2 Table; HeLa; 20 = no response at highest concentration; read-out: CellCycle G2/M
[22] = Mus musculus, C2C12; read-out: Wnt Pathway
[23] = Homo sapiens; read-out: Anti-Angiogenesis
[24] = HCT-116, read-out: GSK3b inh pretreated_Viability ATP HCT116
[25] = DLD-1, read-out: Basal_Viability ATP DLD-1
[26] = HCT-116, read-out: Basal_Viability ATP HCT116
[27] = Rattus norvegicus, INS-1E, read-out: Insulin Secretion
[28] = Homo sapiens, NCI-H716, read-out: GLP 1 Secretion
[29] = SW480, read-out: Basal_Viability ATP SW480
[30] = Homo sapiens, HeLa, read-out: CellCycle G2/M
[31] = Mus musculus, C2C12, read-out: Wnt Pathway
[32] = Homo sapiens, read-out: Anti-Angiogenesis
[33] = DLD-1, 72 h, read-out: DLD-1 viab. IC50
[34] = HCT-116, 72 h, read-out: HCT-116 viab. IC50
[35] = Rattus norvegicus, INS-1E, read-out: Ins. sec. EC50
[36] = Homo sapiens, NCI-H716, read-out: GLP1 sec. EC50
[37] = SW480, 72 h, read-out: SW480 viab. IC50
[38] = HCT-116, 72 h, read-out: HCT-116 (GSK3β) viab. IC50
[39] = Mus musculus, C2C12, read-out: Wnt pot. EC50
[40] = Homo sapiens, read-out: Anti-Angio IC50

Row | Compound | IC50 ([1]; kinase assay) [µM] | IC50 [3, 16] [µM] | IC50 ([4]; kinase assay) [µM] | IC50 ([5]; kinase assay) [µM] | EC50 [6, 17] [µM] | EC50 [7, 18] [µM] | IC50 ([8]; kinase assay) [µM] | IC50 ([10]; kinase assay) [µM] | IC50 [1] [µM] | IC50 [4] [µM] | IC50 [5] [µM] | IC50 [8] [µM] | IC50 [10] [µM] | IC50 [11, 24] [µM] | IC50 [2, 25] [µM] | IC50 [3, 26] [µM] | EC50 [6, 27] [µM] | IC50 [9, 29] [µM] | EC50 [12, 30] [µM] | IC50 [14, 32] [µM] | also measured
1 | COC(=O)Nc1nc2ccc(C(=O)c3cccs3)cc2[nH]1 [Nocodazole] | > 20 | 1.08 | 6.61 | > 20 | > 10 | > 10 | > 20 | 19.9 |  |  |  |  |  |  |  |  |  |  |  |  | IC50 [2, 15]: 1.66 µM; IC50 [9, 19]: > 20 µM; IC50 [11, 20]: 1.12 µM; EC50 [12, 21]: 0.0221 µM; EC50 [13, 22]: 0.0434 µM; IC50 [14, 23]: 0.102 µM
2 | CCCOc1ccc2nc(NC(=O)OC)[nH]c2c1 [Oxibendazole] | > 20 | 4.75 | > 20 | > 20 | > 10 | > 10 | > 20 | > 20 |  |  |  |  |  |  |  |  |  |  |  |  | IC50 [2, 15]: > 20 µM; IC50 [9, 19]: > 20 µM; IC50 [11, 20]: > 20 µM; EC50 [12, 21]: 0.0567 µM; EC50 [13, 22]: 0.0881 µM; IC50 [14, 23]: 0.328 µM
3 | CCCCC1C(=O)N(c2ccccc2)N(c2ccc(O)cc2)C1=O (stereo not drawn) [Oxyphenbutazone] |  |  |  |  |  |  |  |  | > 20 | > 20 | > 20 | > 20 | > 20 | > 20 |  |  |  |  |  |  | IC50 ([2]; DLD-1, basal, read-out: Basal_Viability ATP DLD-1): 5.87 µM; IC50 ([3]; HCT-116, basal, read-out: Basal_Viability ATP HCT116): 15.7 µM; EC50 ([6]; Rattus norvegicus; IC50 / EC50; INS-1E; read-out: Insulin Secretion): > 10 µM; EC50 ([7]; Homo sapiens; IC50 / EC50; NCI-H716; read-out: GLP 1 Secretion): > 10 µM; IC50 ([9]; SW480, basal, read-out: Basal_Viability ATP SW480): 3.01 µM; EC50 ([12]; Homo sapiens, HeLa, IC50 / EC50; HeLa; read-out: CellCycle G2/M): > 10 µM; EC50 ([13]; Mus musculus, C2C12, IC50 / EC50; C2C12 beta-catenin translocation; read-out: Wnt Pathway): 4.92 µM; IC50 ([14]; Homo sapiens, IC50 / EC50; endothelial tube area, ADSC/ECFC co-culture; read-out: Anti-Angiogenesis): 3.29 µM
4 | COc1cc([C@@H]2c3cc4c(cc3[C@H](O)[C@H]3COC(=O)[C@H]23)OCO4)cc(OC)c1OC [Podofilox] | > 20 | 0.184 | > 20 | > 20 | > 10 | > 10 | > 20 | > 20 |  |  |  |  |  |  |  |  |  |  |  |  | IC50 ([2]; basal, DLD-1, read-out: Basal_Viability ATP DLD-1): 0.182 µM; IC50 ([9]; basal, SW480, read-out: Basal_Viability ATP SW480): 0.207 µM; IC50 [11, 20]: 0.0667 µM; EC50 ([12]; Homo sapiens; S2 Table; HeLa; 20 = no response at highest concentration; read-out: CellCycle G2/M): 0.0077 µM; EC50 [13, 22]: 0.0091 µM; IC50 [14, 23]: 0.0081 µM
5 | COc1cc(-c2ccc(=O)[nH]n2)ccc1OC(F)F [Zardaverine] | > 20 |  | > 20 | > 20 |  |  | > 20 | > 20 |  |  |  |  |  | > 20 | > 20 | > 20 | > 10 | > 20 | > 10 | 1.22 | EC50 [7, 28]: > 10 µM; EC50 [13, 31]: > 10 µM
6 | CCCCCCCCCCCCCCCCNc1ccc(C(=O)O)cc1 [cetaben sodium, sodium p-(hexadecylamino) benzoate, reference compound] |  |  |  |  |  |  |  |  | > 20 | > 20 | > 20 | > 20 | > 20 | 7.41 | 10.6 |  |  | 4.39 | > 10 | 0.367 | inhibition of RPS6KB1 activity (in words) [1]: does not inhibit; IC50 [2, 33]: 10.6 µM; IC50 [3, 34]: > 20 µM; inhibition of KDR activity (in words) [4]: does not inhibit; inhibition of FLT3 activity (in words) [5]: does not inhibit; EC50 [6, 35]: > 10 µM; EC50 [7, 36]: > 10 µM; inhibition of JAK2 activity (in words) [8]: does not inhibit; IC50 [9, 37]: 4.4 µM; inhibition of GSK3β activity (in words) [10]: does not inhibit; IC50 [11, 38]: 7.4 µM; EC50 [13, 39]: > 10 µM; inhibition of endothelial tube / cord formation (in words) [14]: uniquely inhibited endothelial cord formation; IC50 [14, 40]: 0.37 µM
7 | CCC(C)n1ncn(-c2ccc(N3CCN(c4ccc(OCC5COC(Cn6cncn6)(c6ccc(Cl)cc6Cl)O5)cc4)CC3)cc2)c1=O (stereo not drawn) [itraconazole] |  |  |  |  |  |  |  |  | > 20 | > 20 | > 20 | > 20 | > 20 | 8.69 | > 20 | 8.85 | > 10 | 4.33 | > 10 | 1.55 | EC50 [7, 28]: > 10 µM; EC50 [13, 31]: > 10 µM
8 | CSc1ccc2c(c1)C(N1CCN(C)CC1)Cc1ccccc1S2 (stereo not drawn) [metitepine, reference compound] |  |  |  |  |  |  |  |  | > 20 | > 20 | > 20 | > 20 | > 20 | 4.57 | 4.39 | 3.77 | 2.94 | 1.9 | > 10 |  | IC50 [2, 33]: 4.4 µM; IC50 [3, 34]: 3.8 µM; EC50 [6, 35]: 2.9 µM; EC50 [7, 36]: > 10 µM; IC50 [9, 37]: 1.9 µM; IC50 [11, 38]: 4.6 µM; EC50 [13, 39]: > 20 µM; IC50 [14, 40]: > 10 µM
9 | CC[C@@H]([C@H](C)O)n1ncn(-c2ccc(N3CCN(c4ccc(OC[C@@H]5CO[C@@](Cn6cncn6)(c6ccc(F)cc6F)C5)cc4)CC3)cc2)c1=O [posaconazole] |  |  |  |  |  |  |  |  | > 20 | > 20 | > 20 | > 20 | > 20 | > 20 | > 20 | 6.24 | > 10 | 5.81 | > 10 | 6.46 | EC50 [7, 28]: > 10 µM; EC50 [13, 31]: 1.63 µM
